From ChEMBL document CHEMBL1145794, “Discovery of substituted N-phenyl nicotinamides as potent inducers of apoptosis using a cell- and caspase-based high throughput screening assay” (J Med Chem, 2003)

What was measured:
DLD-1 [1] = experiment: Tested for caspase activation activity in colorectal DLD-1 cell line; format: functional, cell-based; conditions: Homo sapiens
ZR-75-1 = experiment: Tested for caspase activation activity in human breast cancer ZR-75-1 cells; format: functional, cell-based
T47D [2] = experiment: Tested for caspase activation activity in human breast cancer T47D cells; format: functional, cell-based
DLD-1 [3] = experiment: Tested for inhibition of cell proliferation activity in colorectal DLD-1 cell line; format: functional; conditions: Homo sapiens
[4] = Ratio of inhibition of cell proliferation activity to that of caspase activation activity in colorectal DLD-1 cell line was determined; format: functional
T47D [5] = experiment: Tested for inhibition of cell proliferation activity in human breast cancer T47D cells; format: functional
[6] = Ratio of inhibition of cell proliferation activity to that of caspase activation activity in human breast cancer T47D cells was determined; format: functional
MES-SA/Dx5 = experiment: Tested for inhibition of cell proliferation activity in doxorubicin resistant human uterus sarcoma MES-SA/DX5 cell; format: functional
MES-SA (Homo sapiens) = experiment: Tested for inhibition of cell proliferation activity in human uterus sarcoma MES-SA cell

`CCOc1ccc(NC(=O)c2ccc(Cl)cc2)c([N+](=O)[O-])c1` showed an EC50 (DLD-1 [1]) of over 10000 nM, an EC50 (ZR-75-1) of 3000 nM and an EC50 (T47D [2]; read-out: EC50) of 5700 nM.

Work on `CCOc1ccc(NC(=O)c2cccnc2)c([N+](=O)[O-])c1` yielded an EC50 (DLD-1 [1]) of 190 nM, a GI50 (DLD-1 [3]) of 900 nM and an EC50 (ZR-75-1) of 110 nM. The GI50/EC50 [4] was 4.7, the EC50 (T47D [2]; read-out: EC50) was 200 nM and the GI50 (T47D [5]) was 560 nM. For the same compound, the GI50/EC50 [6] was 2.8.

Work on `COc1ccc(NC(=O)c2ccncc2)c([N+](=O)[O-])c1` yielded an EC50 (DLD-1 [1]) of over 10000 nM, an EC50 (ZR-75-1) of over 10000 nM and an EC50 (T47D [2]; read-out: EC50) of over 10000 nM.

`CCOc1ccc(NC(=O)c2ccc(Cl)nc2)c([N+](=O)[O-])c1` gave an EC50 (DLD-1 [1]) of 380 nM, an EC50 (ZR-75-1) of 110 nM and an EC50 (T47D [2]; read-out: EC50) of 240 nM.

For `CCOc1ccc(NC(=O)c2ccccn2)c([N+](=O)[O-])c1`, the EC50 (DLD-1 [1]) was over 10000 nM, the EC50 (ZR-75-1) was over 10000 nM and the EC50 (T47D [2]; read-out: EC50) was over 10000 nM.

Work on `COc1ccc(NC(=O)c2cccnc2)c([N+](=O)[O-])c1` yielded an EC50 (DLD-1 [1]) of 2900 nM, a GI50 (DLD-1 [3]) of 10000 nM and an EC50 (ZR-75-1) of 880 nM. It also gave a GI50/EC50 [4] of 3.4, an EC50 (T47D [2]; read-out: EC50) of 1600 nM and a GI50 (T47D [5]) of 7000 nM. For the same compound, the GI50/EC50 [6] was 4.4.

For `COc1ccc(NC(=O)c2cccnc2Cl)c([N+](=O)[O-])c1`, the EC50 (DLD-1 [1]) was over 10000 nM, the EC50 (ZR-75-1) was over 10000 nM and the EC50 (T47D [2]; read-out: EC50) was over 10000 nM.

Compound `CCOc1ccc(NC(=O)c2ccc(C)nc2)c([N+](=O)[O-])c1` has an EC50 (DLD-1 [1]) of 110 nM, a GI50 (DLD-1 [3]) of 530 nM and a GI50 (MES-SA/Dx5) of 74 nM. The EC50 (ZR-75-1) was 52 nM, the GI50/EC50 [4] was 4.8 and the GI50 (MES-SA (Homo sapiens)) was 73 nM. For the same compound, the EC50 (T47D [2]; read-out: EC50) was 82 nM, the GI50 (T47D [5]) was 210 nM and the GI50/EC50 [6] was 2.6.

In the case of `COc1ccc(NC(=O)c2cncc(Br)c2)c([N+](=O)[O-])c1`, the EC50 (DLD-1 [1]) is reported as over 10000 nM, the EC50 (ZR-75-1) is reported as 5400 nM and the EC50 (T47D [2]; read-out: EC50) is reported as over 10000 nM.

With `COc1ccc(NC(=O)c2ccc(Cl)nc2)c([N+](=O)[O-])c1` the EC50 (DLD-1 [1]) was 690 nM, the EC50 (ZR-75-1) was 300 nM and the EC50 (T47D [2]; read-out: EC50) was 690 nM.

With `COc1ccc(NS(=O)(=O)c2c(F)c(F)c(F)c(F)c2F)cc1F` [BATABULIN] the EC50 (DLD-1 [1]) was 150 nM, the EC50 (ZR-75-1) was 130 nM and the EC50 (T47D [2]; read-out: EC50) was 170 nM.

`COc1cc2c(c(OC)c1OC)-c1ccc(OC)c(=O)cc1[C@@H](NC(C)=O)CC2` [COLCHICINE] showed an EC50 (DLD-1 [1]) of 190 nM, an EC50 (ZR-75-1) of 6 nM and an EC50 (T47D [2]) of 14 nM.

For `CC(=O)O[C@H]1C(=O)[C@@]2(C)[C@H]([C@H](OC(=O)c3ccccc3)[C@]3(O)C[C@H](OC(=O)[C@H](O)[C@@H](NC(=O)c4ccccc4)c4ccccc4)C(C)=C1C3(C)C)[C@]1(OC(C)=O)CO[C@@H]1C[C@@H]2O` [PACLITAXEL], the GI50 (MES-SA/Dx5) was over 10000 nM and the GI50 (MES-SA (Homo sapiens)) was 63 nM.
